Results as given in the NIST ThermoML archive (doi:10.1016/j.fluid.2015.04.021).

Test: cn = amount concentration of the nth substance listed, in mol/dm3
Conditions: 101.3 kPa, Liquid; for viscosity: Falling or rolling sphere viscometry; for mass density: Vibrating tube method

NCCCC[C@H](N)C(=O)[O-].[K+] [potassium L-lysinate] + O
Conditions | mass density [kg/m3] | viscosity [mPa·s]
298.15 K, c1 = 0.2001 | 1010.5 | 1.003
298.15 K, c1 = 0.25 | 1017.5 | 1.008
298.15 K, c1 = 0.5 | 1028.2 | 1.29
298.15 K, c1 = 0.75 | 1043.2 | 1.348
298.15 K, c1 = 1.008 | 1056 | 1.575
298.15 K, c1 = 1.529 | 1084.8 | 2.286
298.15 K, c1 = 1.79 | 1111 | 3.236
298.15 K, c1 = 2 | 1121.6 | 3.564
298.15 K, c1 = 2.5 | 1141.9 | 5.406
298.15 K, c1 = 3 | 1151 | 8.407
303.15 K, c1 = 0.2001 | 1009 | 0.8978
303.15 K, c1 = 0.25 | 1016 | 0.9023
303.15 K, c1 = 0.5 | 1027.1 | 1.158
303.15 K, c1 = 0.75 | 1041.4 | 1.2
303.15 K, c1 = 1.008 | 1054.1 | 1.397
303.15 K, c1 = 1.529 | 1082.7 | 2.007
303.15 K, c1 = 1.79 | 1108.6 | 2.805
303.15 K, c1 = 2 | 1119.1 | 3.054
303.15 K, c1 = 2.5 | 1139.1 | 4.597
303.15 K, c1 = 3 | 1148.3 | 7.027
308.15 K, c1 = 0.2001 | 1007.3 | 0.8095
308.15 K, c1 = 0.25 | 1014.2 | 0.8125
308.15 K, c1 = 0.5 | 1025.2 | 1.045
308.15 K, c1 = 0.75 | 1039.5 | 1.075
308.15 K, c1 = 1.008 | 1052 | 1.247
308.15 K, c1 = 1.529 | 1080.4 | 1.774
308.15 K, c1 = 1.79 | 1106 | 2.454
308.15 K, c1 = 2 | 1116.5 | 2.676
308.15 K, c1 = 2.5 | 1136.4 | 3.95
308.15 K, c1 = 3 | 1145.5 | 5.946
313.15 K, c1 = 0.2001 | 1005.4 | 0.7344
313.15 K, c1 = 0.25 | 1012.3 | 0.7377
313.15 K, c1 = 0.5 | 1023.2 | 0.9512
313.15 K, c1 = 0.75 | 1037.3 | 0.9697
313.15 K, c1 = 1.008 | 1049.8 | 1.121
313.15 K, c1 = 1.529 | 1077.9 | 1.581
313.15 K, c1 = 1.79 | 1103.4 | 2.173
313.15 K, c1 = 2 | 1113.8 | 2.358
313.15 K, c1 = 2.5 | 1133.5 | 3.433
313.15 K, c1 = 3 | 1142.6 | 5.094
318.15 K, c1 = 0.2001 | 1003.3 | 0.6711
318.15 K, c1 = 0.25 | 1010.2 | 0.6737
318.15 K, c1 = 0.5 | 1021 | 0.866
318.15 K, c1 = 0.75 | 1035.1 | 0.8813
318.15 K, c1 = 1.008 | 1047.5 | 1.014
318.15 K, c1 = 1.529 | 1075.4 | 1.418
318.15 K, c1 = 1.79 | 1100.8 | 1.934
318.15 K, c1 = 2 | 1111 | 2.116
318.15 K, c1 = 2.5 | 1130.6 | 3.008
318.15 K, c1 = 3 | 1139.7 | 4.407
323.15 K, c1 = 0.2001 | 1001.1 | 0.6168
323.15 K, c1 = 0.25 | 1007.9 | 0.6185
323.15 K, c1 = 0.5 | 1018.6 | 0.796
323.15 K, c1 = 0.75 | 1032.7 | 0.804
323.15 K, c1 = 1.008 | 1045 | 0.9223
323.15 K, c1 = 1.529 | 1072.8 | 1.28
323.15 K, c1 = 1.79 | 1098.1 | 1.735
323.15 K, c1 = 2 | 1108.1 | 1.916
323.15 K, c1 = 2.5 | 1127.6 | 2.659
323.15 K, c1 = 3 | 1136.7 | 3.852
328.15 K, c1 = 0.2001 | 998.6 | 0.5697
328.15 K, c1 = 0.25 | 1005.4 | 0.5705
328.15 K, c1 = 0.5 | 1016.2 | 0.7351
328.15 K, c1 = 0.75 | 1030.1 | 0.7388
328.15 K, c1 = 1.008 | 1042.4 | 0.8431
328.15 K, c1 = 1.529 | 1070.1 | 1.162
328.15 K, c1 = 1.79 | 1095.2 | 1.566
328.15 K, c1 = 2 | 1105.2 | 1.757
328.15 K, c1 = 2.5 | 1124.6 | 2.368
328.15 K, c1 = 3 | 1133.7 | 3.394
333.15 K, c1 = 0.2001 | 995.6 | 0.5292
333.15 K, c1 = 0.25 | 1002.8 | 0.5294
333.15 K, c1 = 0.5 | 1013.7 | 0.6833
333.15 K, c1 = 0.75 | 1027.5 | 0.6798
333.15 K, c1 = 1.008 | 1039.7 | 0.7748
333.15 K, c1 = 1.529 | 1067.2 | 1.061
333.15 K, c1 = 1.79 | 1092.3 | 1.421
333.15 K, c1 = 2 | 1102.2 | 1.621
333.15 K, c1 = 2.5 | 1121.5 | 2.136
333.15 K, c1 = 3 | 1130.6 | 3.012
338.15 K, c1 = 0.2001 | 993.4 | 0.4937
338.15 K, c1 = 0.25 | 1002.8 | 0.4939
338.15 K, c1 = 0.5 | 1011 | 0.6409
338.15 K, c1 = 0.75 | 1024.7 | 0.629
338.15 K, c1 = 1.008 | 1036.9 | 0.7155
338.15 K, c1 = 1.529 | 1064.3 | 0.9729
338.15 K, c1 = 1.79 | 1089.3 | 1.296
338.15 K, c1 = 2 | 1099.1 | 1.501
338.15 K, c1 = 2.5 | 1118.3 | 1.927
338.15 K, c1 = 3 | 1127.5 | 2.693
343.15 K, c1 = 0.2001 | 990.6 | 0.4633
343.15 K, c1 = 0.25 | 997.3 | 0.463
343.15 K, c1 = 0.5 | 1008.1 | 0.6042
343.15 K, c1 = 0.75 | 1021.8 | 0.5855
343.15 K, c1 = 1.008 | 1033.9 | 0.6637
343.15 K, c1 = 1.529 | 1061.3 | 0.8961
343.15 K, c1 = 1.79 | 1086.3 | 1.188
343.15 K, c1 = 2 | 1096 | 1.435
343.15 K, c1 = 2.5 | 1115 | 1.748
343.15 K, c1 = 3 | 1124.3 | 2.423
348.15 K, c1 = 0.2001 | 987.7 | 0.4359
348.15 K, c1 = 0.25 | 994.3 | 0.4358
348.15 K, c1 = 0.5 | 1005.2 | 0.5715
348.15 K, c1 = 0.75 | 1018.7 | 0.5472
348.15 K, c1 = 1.008 | 1030.9 | 0.6181
348.15 K, c1 = 1.529 | 1058.2 | 0.8306
348.15 K, c1 = 1.79 | 1083.2 | 1.095
348.15 K, c1 = 2 | 1092.7 | 1.346
348.15 K, c1 = 2.5 | 1111.8 | 1.594
348.15 K, c1 = 3 | 1121.1 | 2.208

O=C([O-])[C@@H]1CCCN1.[K+] [potassium L-prolinate] + O
Conditions | mass density [kg/m3] | viscosity [mPa·s]
298.15 K, c1 = 0.5001 | 1026.6 | 1.105
298.15 K, c1 = 1 | 1054.7 | 1.38
298.15 K, c1 = 1.5 | 1088 | 1.861
298.15 K, c1 = 2 | 1111.4 | 2.293
298.15 K, c1 = 2.5 | 1145.8 | 3.181
298.15 K, c1 = 3 | 1166.9 | 4.054
303.15 K, c1 = 0.5001 | 1025.2 | 0.9857
303.15 K, c1 = 1 | 1053 | 1.232
303.15 K, c1 = 1.5 | 1086.4 | 1.642
303.15 K, c1 = 2 | 1109.2 | 2.028
303.15 K, c1 = 2.5 | 1143.2 | 2.755
303.15 K, c1 = 3 | 1164.1 | 3.491
308.15 K, c1 = 0.5001 | 1023.5 | 0.8913
308.15 K, c1 = 1 | 1051 | 1.103
308.15 K, c1 = 1.5 | 1084.5 | 1.465
308.15 K, c1 = 2 | 1107 | 1.794
308.15 K, c1 = 2.5 | 1140.6 | 2.409
308.15 K, c1 = 3 | 1161.3 | 3.038
313.15 K, c1 = 0.5001 | 1021.6 | 0.8086
313.15 K, c1 = 1 | 1049 | 0.9949
313.15 K, c1 = 1.5 | 1082.2 | 1.31
313.15 K, c1 = 2 | 1104.7 | 1.601
313.15 K, c1 = 2.5 | 1137.9 | 2.136
313.15 K, c1 = 3 | 1158.4 | 2.662
318.15 K, c1 = 0.5001 | 1019.6 | 0.7351
318.15 K, c1 = 1 | 1046.8 | 0.9035
318.15 K, c1 = 1.5 | 1081.2 | 1.2
318.15 K, c1 = 2 | 1102.5 | 1.439
318.15 K, c1 = 2.5 | 1135.1 | 1.903
318.15 K, c1 = 3 | 1155.5 | 2.354
323.15 K, c1 = 0.5001 | 1017.6 | 0.6741
323.15 K, c1 = 1 | 1044.5 | 0.8251
323.15 K, c1 = 1.5 | 1078.8 | 1.085
323.15 K, c1 = 2 | 1100.4 | 1.296
323.15 K, c1 = 2.5 | 1132.2 | 1.707
323.15 K, c1 = 3 | 1152.5 | 2.102
328.15 K, c1 = 0.5001 | 1015.2 | 0.6219
328.15 K, c1 = 1 | 1042.2 | 0.7569
328.15 K, c1 = 1.5 | 1076.6 | 0.9922
328.15 K, c1 = 2 | 1098.5 | 1.196
328.15 K, c1 = 2.5 | 1129.2 | 1.541
328.15 K, c1 = 3 | 1149.4 | 1.887
333.15 K, c1 = 0.5001 | 1012.8 | 0.5764
333.15 K, c1 = 1 | 1039.9 | 0.7002
333.15 K, c1 = 1.5 | 1074.7 | 0.9175
333.15 K, c1 = 2 | 1095.8 | 1.093
333.15 K, c1 = 2.5 | 1126.2 | 1.4
333.15 K, c1 = 3 | 1146.3 | 1.704
338.15 K, c1 = 0.5001 | 1010.4 | 0.5373
338.15 K, c1 = 1 | 1037.4 | 0.6493
338.15 K, c1 = 1.5 | 1073.7 | 0.8552
338.15 K, c1 = 2 | 1093.6 | 1.009
338.15 K, c1 = 2.5 | 1123 | 1.278
338.15 K, c1 = 3 | 1143.1 | 1.549
343.15 K, c1 = 0.5001 | 1008 | 0.5039
343.15 K, c1 = 1 | 1035.5 | 0.608
343.15 K, c1 = 1.5 | 1071.9 | 0.7966
343.15 K, c1 = 2 | 1094.3 | 0.9587
343.15 K, c1 = 2.5 | 1119.9 | 1.173
343.15 K, c1 = 3 | 1139.8 | 1.414
348.15 K, c1 = 0.5001 | 1005.6 | 0.4733
348.15 K, c1 = 1 | 1035.7 | 0.5792
348.15 K, c1 = 1.5 | 1070.5 | 0.7486
348.15 K, c1 = 2 | 1092.4 | 0.8972
348.15 K, c1 = 2.5 | 1116.6 | 1.082
348.15 K, c1 = 3 | 1136.5 | 1.299
